Blank lines part the entries; values can stand above or below the molecule they belong to.
Assays:
[1] = system: cerebellar granule neurons; test: release of FM1-43-loaded synaptic vesicles from cerebellar granule neurons under continuous stimulus; type: cell-based, rat
Protocol: Granule neurons were grown for 7 days and rendered hormone free by growth in serum-free medium as detailed above. Coverslips were then placed in a perfusion chamber, mounted on the stage of a laser scanning confocal microscope and perfused at 1 ml/min at 25° C. with perfusion buffer (119 mM NaCl, 2.5 mM KCl, 2 mM CaCl2, 2 mM MgCl2, 25 mM HEPES (pH 7.4), 30 mM glucose, and […] AP-5). The effects of different hormones on synaptic vesicle trafficking were then determined. […] Depolarizing KCl was then removed from the perfusion buffer and the cells were exposed to FM1-43 for an additional 30 seconds to insure complete loading of recycling synaptic vesicles. Loaded cells were then washed free of dye and the cells were perfused for ten minutes at rest.
Images of a single field of neuronal fibers were then taken immediately before adding a second depolarizing solution (perfusion buffer containing 50 mM KCl) and at one and two minutes after beginning the continuous stimulation by 50 mM KCl. Thirty to forty-five individual FM1-43 labeled nerve terminals were identified in the baseline images (taken prior to depolarization) and the change in fluorescence (DF) for each nerve terminal determined at the one and two minute time points. FIGS. 11A and 11B show the results of analysis of the hormone specificity of synaptic vesicle trafficking (FIG. 11A) and the influence of individual myo5a mutants (FIG. 11B) on synaptic vesicle transport in granule neurons.
To evaluate the role of myo5a in synaptic vesicle transport, three different myo5a constructs were introduced into the neurons by replication-deficient adenoviral vectors (Δmyo5a^tail(MyoV^tail), Δmyo5a^c-term(MyoV^1830)and ΔMyo5a^CC(MyoV^cc) see FIG. 5) as described above. […] Neurons were infected with purified Ad5-constructs (MOI=10) 48 hours prior to the synaptic vesicle trafficking study, and allowed to recover in hormone (T4) supplemented medium. […] This modest influence of the VBD mutant on synaptic vesicle retention is likely to be due to the loss of the kinesin-binding domain that limits its delivery to nerve terminals.

[2] = system: cerebellar granule neurons; test: FM1-43 synaptic vesicle recycling in cultured cerebellar granule neurons, spontaneous activity; type: cell-based, rat
Protocol: All of the major components of hormone-induced vesicle trafficking in astrocytes (actin fibers, myosin V (also referred to as myosin 5a and myo 5a), and recycling vesicles) are also present in nerve terminals. Therefore, the effects of thyroid hormone on synaptic vesicle recycling in the presynaptic nerve terminal were examined using myo5a-dependent synaptic vesicle (SV) recycling in cultured cerebellar granule neurons. In these experiments, rat granule neurons were grown on laminin-coated coverslips in the absence or presence of hormone and synaptic vesicle recycling was examined using FM1-43 (a styryl dye used in the art for studying endocytosis and exocytosis, e.g., in synaptic vesicle uptake and release assays; Molecular Probes, Inc. Eugene, Oreg.). […] In contrast, granule neurons grown in thyroid hormone supplemented medium released only 15-20% of the FM1-43 after six minutes of incubation and the hormone specificity of retention of FM1-43 in the “reserve pool” was identical to that determined for myo5a-dependent, endocytosis of p29 vesicles (D2p29 vesicles) in astrocytes.
Cerebellar granule neurons were examined because thyroid hormone has a profound influence on granule neuron viability during cerebellar maturation (Xiao and Nikodem, 1998, Front. Biosci. 3: A52-57; Rabie et al., 1980, Brain Res. 190:409-414), and because of the effects of the loss of myo5a on synaptic vesicle homeostasis (Bridgman, 1999, J. Cell Biol. 146:1045-1060). […]
Experiments were conducted to determine whether synaptic vesicle endocytosis could be altered by the hormone status of the neuron. […] The dye was then removed and the number, intensity and retention of the FM1-43 in random nerve terminals immediately after washing and after six minutes of autonomous activity were analyzed in paraformaldehyde fixed cells (Ryan, 1999, J. Neurosci.: 19:1317-1323). Fluorescence in single nerve terminals (ROI=7×7 pixels) and in an adjacent segment of the neuronal fiber were measured for 40-45 individual nerve terminals. […] Fluorescence intensity was determined using NIH Image software. The total FM1-43 fluorescence in a nerve terminal represents the sum of the dye-loaded synaptic vesicles in the readily releasable and the reserve pools.
By allowing recurrent activity, the FM1-43 filled synaptic vesicles present in the readily releasable pool will be progressively depleted. […] By measuring the total FM1-43 content in random nerve terminals immediately after loading and at 30 second intervals for six minutes of spontaneous activity, the influence of hormones on the distribution of recycling synaptic vesicles between the readily releasable and reserve pools was estimated.

[3] = system: binding of p29^GFP vesicles to F-actin; test: modified in vitro actin binding assay with p29^GFP-labeled vesicles; type: biochemical, rat; details: for competition with native myosin V for T4-dependent binding of p29 to F-actin: ~2-3 pmol polypeptide/50 μl mixture, 10 nM T4
Protocol: To define the specific region(s) of the myosin V tail that interact with the p29 vesicle, a series of deletion mutations were created based on the dominant negative effect of exogenous myosin V tail on p29 vesicle binding. Competition analysis of the myosin V deletion mutations on T4-dependent binding of p29 vesicles to F-actin was performed using a modified in vitro assay in which a GFP-tagged p29 fusion protein (p29^GFP) replaced the radioaffinity labeled native p29 (Farwell et al., 1990, J. Biol. Chem. 265:18546-18553; Farwell et al., 1993, J. Biol. Chem. 268:5055-5062). This allowed direct evaluation of the binding of fluorescent vesicles to F-actin without affinity radiolabeling of the p29 and subsequent SDS-PAGE analysis.
Specific fluorescence at 510 nm (excitation, 488 nm) was then determined in the resuspended Triton-insoluble pellets.
To determine if the myosin V tail could be captured by the p29^GFP vesicle, an exogenous myosin V^tail was introduced into astrocytes constitutively expressing p29^GFP by infection with Ad5-ΔMyo V^tail virus particles and examined the effects of T4 on the binding of the myosin V^tail to immunopurified p29^GFP vesicles. Astrocytes expressing p29^GFP were grown in serum-free media and treated for 16 hours with 1 mM bt2cAMP and 100 nM hydrocortisone. A separate pool of astrocytes was treated in serum-free media supplemented with 10 μM retinoic acid. Cells were collected by scraping, and lysed by two freeze-thaw cycles. […] Triton-soluble (vesicle) and Triton-insoluble (F-actin) fractions were separated by microflige centrifugation. Triton pellets were resuspended in 300 μl of PBS and fluorescence at 510 nm (excitation 488 nm) determined and relative fluorescence was reported as arbitrary units. Cells were treated with 10 nM T4 for twenty minutes and a Triton-soluble supernatant was prepared. Vesicles containing the p29^GFP were immunoprecipitated by anti-GFP IgG (2 μg/ml) and protein in the immunoprecipitates were resolved by SDS-PAGE. Immunoblot analysis of vesicle-associated myosin V was performed using the anti-myosin V antibody directed against the C-terminus.
The quantity of each mutant protein synthesized was determined by [^35 S]-methionine incorporation. Astrocytes expressing p29^GFP were grown in serum-free media and treated for 16 hours with […] bt2cAMP and 100 nM hydrocortisone. p29^GFP V-lysate and F-lysate were prepared as described herein. 100 μg aliquots of p29^GFP V-lysate and F-lysate were pre-incubated, in triplicate, for 20 minutes at 37° C. in the presence of individual Δ myosin V mutant proteins (˜2-3 pmol polypeptide/50 μl mixture) were added to the actin-binding assay and pre-incubated for 20 minutes at 37° C. T4 (10 nM) was then added, the mixtures incubated for 20 minutes at 37° C., and F-actin bound, fluorescent p29^GFP vesicles were then isolated in the Triton-insoluble pellet.
V lysates prepared from astrocytes over-expressing p29^GFP were pre-incubated for 30 minutes at room temperature with antisera raised against ΔTRα2, ΔTRα1, the C-terminus of MyoV (encoded by MyoV^tail, FIG. 5), the coiled-coil region of MyoV (encoded by MyoV^coil-coil, FIG. 5) and GFP (green fluorescent protein). T4 (10 nM) and actin fiber-containing F-lysate was then added, the mixtures incubated at 37° C. for 20 minutes, and the Triton-insoluble fraction isolated by centrifugation.

competition with native myosin V for T4-dependent binding of p29 to F-actin [3]: did not compete
B1: A myosin V middle: myosin V truncation mutant corresponding to amino acids 504-1307 (protein)
chain: GILDLLDEECKMPKGTDDTWAQKLYNTHLNKCALFEKPRMSNKAFIIKHFADKVEYQCEGFLEKNKDTVFEEQIKVLKSSKFKMLPELFQDDEKAISPTSATSSGRTPLTRVPVKPTKGRPGQTAKEHKKTVGHQFRNSLHLLMETLNATTPHYVRCIKPNDFKFPFTFDEKRAVQQLRACGVLETIRISAAGFPSRWTYQEFFSRYRVLMKQKDVLGDRKQTCKNVLEKLILDKDKYQFGKTKIFFRAGQVAYLEKLRADKLRAACIRIQKTIRGWLLRKRYLCMQRAAITVQRYVRGYQARCYAKFLRRTKAATTIQKYWRMYVVRRRYKIRRAATIVIQSYLRGYLTRNRYRKILREYKAVIIQKRVRGWLARTHYKRTMKAIVYLQCCFRRMMAKRELKKLKIEARSVERYKKLHIGMENKIMQLQRKVDEQNKDYKCLMEKLTNLEGVYNSETEKLRNDVERLQLSEEEAKVATGRVLSLQEEIAKLRKDLEQTRSEKKSIEERADKYKQETDQLVSNLKEENTLLKQEKETLNHRIVEQAKEMTETMERKLVEETKQLELDLNDERLRYQNLLNEFSRLEERYDDLKEEMTLMLNVPKPGHKRTDSTHSSNESEYTFSSEFAETEDIAPRTEEPIEKKVPLDMSLFLKLQKRVTELEQEKQLMQDELDRKEEQVFRSKAKEEERPQIRGAELEYESLKRQELESENKKLKNELNELRKALSEKSAPEVTAPGAPAYRVLMEQLTSVSEELDVRKEEVLILRSQLVSQKEAIQPKDDKNTMTDSTILLEDVQKMKDKGE

competition with native myosin V for T4-dependent binding of p29 to F-actin [3]: did not compete
B2: myosin V tail lacking the last 44 residues (residues 953-1803): myosin V tail truncation mutant, residues 953-1803 (protein)
chain: LEGVYNSETEKLRNDVERLQLSEEEAKVATGRVLSLQEEIAKLRKDLEQTRSEKKSIEERADKYKQETDQLVSNLKEENTLLKQEKETLNHRIVEQAKEMTETMERKLVEETKQLELDLNDERLRYQNLLNEFSRLEERYDDLKEEMTLMLNVPKPGHKRTDSTHSSNESEYTFSSEFAETEDIAPRTEEPIEKKVPLDMSLFLKLQKRVTELEQEKQLMQDELDRKEEQVFRSKAKEEERPQIRGAELEYESLKRQELESENKKLKNELNELRKALSEKSAPEVTAPGAPAYRVLMEQLTSVSEELDVRKEEVLILRSQLVSQKEAIQPKDDKNTMTDSTILLEDVQKMKDKGEIAQAYIGLKETNRLLESQLQSQKRSHENEAEALRGEIQSLKEENNRQQQLLAQNLQLPPEARIEASLQHEITRLTNENLYFEELYADDPKKYQSYRISLYKRMIDLMEQLEKQDKTVRKLKKQLKVFAKKIGELEVGQMENISPGQIIDEPIRPVNIPRKEKDFQGMLEYKREDEQKLVKNLILELKPRGVAVNLIPGLPAYILFMCVRHADYLNDDQKVRSLLTSTINSIKKVLKKRGDDFETVSFWLSNTCRFLHCLKQYSGEEGFMKHNTSRQNEHCLTNFDLAEYRQVLSDLAIQIYQQLVRVLENILQPMIVSGMLEHETIQGVSGVKPTGLRKRTSSIADEGTYTLDSILRQLNSFHSVMCQHGMDPELIKQVVKQMFYIVGAITLNNLLLRKDMCSWSKGMQIRYNVSQLEEWLRDKNLMNSGAKETLEPLIQAAQLLQVKKKTDDDAEAICSMCNALTTAQIVKVLNLYTPVNEFEERVSVSFIRTIQ

The remaining lines, values behind:

Molecule: Δ myosin ^1830: myosin V tail deletion mutant, residues 1830-1852; vesicle-binding domain (NPSSLALETIQIPASLGLGFIAR)
increase of the t1/2 of FM1-43 retention ([1]; expression from Ad5 construct (MOI=10), T4 supplemented medium): 50%

Molecule: N[C@@H](Cc1cc(I)c(Oc2ccc(O)c(I)c2)c(I)c1)C(=O)O [T3, 3,5, 3′-triiodothyronine]
endocytosed FM1-43 released ([2]; after three minutes of spontaneous activity): > 80%
uptake of FM1-43 ([2]; immediately after loading): No differences
retention of recycling synaptic vesicles ([1]; 10 nM hormone, continuous stimulation by 50 mM KCl): no effect
p29^GFP vesicle binding to F-actin, dose-response ([3]; 0-100 nM, below the highest concentration): did not increase
increase in p29^GFP vesicle binding to F-actin ([3]; 100 nM, highest concentration of hormone used): 10-20%

Source: patent US7374890B2, “Methods for identifying compounds that modulate ΔTRα2 activity” (University of Massachusetts, priority 2000, dated 2008)
